Results taken from patent publication US5843983A, “Diphenylethane compounds containing a saturated heterocyclic group, their preparation, and their therapeutic use” (Sankyo Company, Limited, priority 1996, dated 1998).
Structures can show the parent of a compound that is named as a salt.

Legend:
[1] = test system: smooth muscle contraction; assay: Vasoconstriction experiment (serotonin-induced contraction of tail artery helical strip); type: cell-based, Male SD rats; details: rat tail artery strip, 3×10^-6 M serotonin, Tyrode's solution, 37° C.; read-out: IC50 (concentration required to reduce the tension to 50%)
Procedure: Vasoconstriction experiment
Effects on smooth muscle contraction were examined by the method of Van Neuten et al. [J. Pharmacol. Exp. Ther., 218, 217-230, (1981)]. Male SD rats, each weighing approximately 500 g, were sacrificed by exsanguination, and the tail artery was excised from each animal. Adherent tissues were removed from the artery for preparation of a helical strip of dimensions about 2×20 mm. The strip was suspended in an organ bath kept at 37° C. and containing 10 ml of Tyrode's solution saturated with a mixed gas (95% O2 /5% CO2) and equilibrated for 1 hour before used in the experiment. An initial tension of 0.5 g was loaded on the helical strip, and changes in tension were recorded in an isometric manner via a transducer. 3×10^-6 M of serotonin was added to the bath as a vasoconstriction inducer, and, after stabilisation of the contractile response of the specimen, a test compound was added to the bath so as to increase the level of test compound in the bath progressively, whilst monitoring the tension in the helical strip. 10^-4 M of papaverine was then added. On the assumption that the tension before the addition of each test compound was 100% and that the tension 5 minutes after the addition of papaverine was 0%, the concentration of each test compound required to reduce the tension to 50% (IC50) was calculated from the least square regression line.

[2] = target: serotonin receptors; assay: Receptor-binding experiment; parameters: species or system Male Wistar rats; details: rat cerebral cortex membrane, ^3 H-ligand, 30° C., 1 hour; read-out: IC50 (concentration required to inhibit the binding by 50%)
Procedure: Receptor-binding experiment
The method of Leysen et al. [Mol. Pharmacol., 21, 301-314, (1982)] was employed. Male Wistar rats (body weight 280-320 g) were used in this experiment. The head of each animal was severed, and the cerebral cortex and corpus striatum were excised. These organs were frozen on dry ice and stored at -80° C. until used. Binding to serotonin receptors was examined using the cerebral cortex. To prepare a membrane suspension, the frozen brain tissue was homogenised with 50 mM Tris-HCl buffer (pH 7.7) using Polytron PT-20, and the homogenate was centrifuged at 49,000×gfor 10 minutes. The resulting pellet was suspending in a Tris buffer, centrifuged, and resuspended in Tris buffer. The content of protein in the membrane suspension thus prepared was determined, and adjusted to 0.57 mg/protein/ml with Tris buffer. The membrane suspension was stored at -80° C.
The receptor-binding reaction was started by adding 440 μl of the membrane suspension to a test tube containing 50 μl of ^3 H-ligand and 10 μl of each test compound (dissolved in dimethyl sulfoxide). After incubation at 30° C. for 1 hour, the reaction was terminated by filtration under reduced pressure using a Whatman GF/B glass filter. The filter was washed with ice-cooled Tris buffer (4 ml×2 times). The filter was then treated with ACS-II, and its radioactivity was determined with a liquid scintillation counter. Non-specific binding was determined in the presence of 20 μM atropine. The percent inhibition of receptorbinding was determined from the percent binding in the presence of each test compound. The concentration of each test compound required to inhibit the binding by 50% (IC50) was calculated from the least square regression line.

[3] = target: T1, squalene synthase (Rattus norvegicus, UniProt Q02769); assay: Squalene synthase inhibitory activity; type: biochemical; details: rat liver microsome, 10 μM [4-^14 C]-FPP, pH 7.5, 37° C., 20 minutes; read-out: IC50 (50% inhibitory concentration)
T1 construct: The reaction was started by the addition of rat liver microsome suspension; from tissue; host or cells: rat liver microsomes
T1 sequence (Q02769 1-416): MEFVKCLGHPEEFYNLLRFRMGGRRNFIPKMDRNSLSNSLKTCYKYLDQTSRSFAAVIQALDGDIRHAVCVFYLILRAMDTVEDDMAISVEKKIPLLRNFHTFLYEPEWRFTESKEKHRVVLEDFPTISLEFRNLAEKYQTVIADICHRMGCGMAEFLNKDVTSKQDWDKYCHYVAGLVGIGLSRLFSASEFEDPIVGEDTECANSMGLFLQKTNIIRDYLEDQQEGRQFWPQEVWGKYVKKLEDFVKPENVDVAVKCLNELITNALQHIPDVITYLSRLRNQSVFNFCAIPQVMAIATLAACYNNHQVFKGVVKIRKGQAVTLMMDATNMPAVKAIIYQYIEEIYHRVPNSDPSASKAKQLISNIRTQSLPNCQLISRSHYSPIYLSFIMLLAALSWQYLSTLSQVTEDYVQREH
Procedure: Squalene synthase inhibitory activity Squalene synthase inhibitory activity was determined by the method described in U.S. Pat. […] Anal. Biochem. 203, 310 (1992). […] The reaction was started by the addition of rat liver microsome suspension. The reaction solution was then incubated in a thermostat at 37° C. for 20 minutes, after which the reaction was terminated by the addition of 100 μl of a 1:1 by volume mixture of 40% KOH (aqueous potassium hydroxide) and 95% EtOH (aqueous ethanol). The reaction solution thus treated was further heated at 65° C. for 30 minutes, and then cooled. Squalene was extracted with 2 ml of hexane. One milliliter of the resulting hexane layer was mixed with 10 ml of scintillator, and radioactivity was determined using a liquid scintillation counter. The inhibitory activity of each test compound for the enzyme was determined by co-incubation of the sample containing the test compound with the enzyme sample and substrate in the reaction solution.

SMILES	IC50 [1]	IC50 [2]	IC50 [3]
COc1cccc(CCc2cc(F)ccc2OCC[C@@H]2C[C@@H](O)CN2C)c1 [Example 1, (2R,4R)-2-[2-{4-Fluoro-2-[2-(3-methoxyphenyl)ethyl]phenoxy}ethyl]-4-hydroxy-1-methylpyrrolidine hydrochloride]	1.9 nM	1 nM	–
CN1C[C@H](O)C[C@H]1CCOc1ccc(F)cc1CCc1ccccc1 [Example 6, (2R,4R)-2-{2-[4-Fluoro-2-(2-phenylethyl)phenoxy]ethyl}-4-hydroxy-1-methylpyrrolidine hydrochloride]	2.2 nM	3.4 nM	1100 nM
CN1C[C@H](O)C[C@H]1CCOc1ccc(F)cc1CCc1ccc(F)c(F)c1 [Example 7, (2R,4R)-2-[2-{2-[2-(3,4-Difluorophenyl)ethyl]-4-fluorophenoxy}ethyl]-4-hydroxy-1-methylpyrrolidine hydrochloride]	2.6 nM	0.75 nM	–
CN1C[C@H](O)C[C@H]1CCOc1ccc(F)cc1CCc1ccc(F)cc1 [Example 2, (2R,4R)-2-[2-{4-Fluoro-2-[2-(4-fluorophenyl)ethyl]phenoxy}ethyl]-4-hydroxy-1-methylpyrrolidine hydrochloride]	2 nM	0.8 nM	–

Further lines, results first:

IC50 [1]	IC50 [2]	IC50 [3]	SMILES
2.3 nM	0.65 nM	1600 nM	COc1cc(CCc2cc(F)ccc2OCC[C@@H]2C[C@@H](O)CN2C)ccc1F [Example 4, (2R,4R)-2-[2-{4-Fluoro-2-[2-(4-fluoro-3-methoxyphenyl)ethyl]phenoxy}ethyl]-4-hydroxy-1-methylpyrrolidine hydrochloride]
–	–	1500 nM	Cc1ccc(OCC[C@@H]2C[C@@H](O)CN2C)c(CCc2ccccc2)c1 [Example 12, (2R,4R)-4-Hydroxy-1-methyl-2-{2-[4-methyl-2-(2-phenylethyl)phenoxy]ethyl}pyrrolidine hydrochloride]
–	–	740 nM	O[C@H]1CN[C@H](CCOc2ccc(F)cc2CCc2ccccc2)C1 [Example 5, (2R,4R)-2-{2-[4-Fluoro-2-(2-phenylethyl)phenoxy]ethyl}-4-hydroxypyrrolidinehydrochloride]
